These results are taken from patent US8895504B2, “Amylin derivatives” (priority 2008, dated 2014).

Each structure is given as a SMILES string. *1 amine or outer side, *2 acyl side, *3 side chain or, on linkers, in order; H or OH if unused. Where a SMILES comes first, the peptide text is derived from it. Bridges are numbered along the chain shown (N, C = ends). The star is where a group is joined. C20 diacid = O=C(O)CCCCCCCCCCCCCCCCCCC(=O)*; γGlu = O=C(O)[C@H](CCC(=O)[*:2])N[*:1]

For assay [1], the target named is T1, Amylin 3(a) receptor (human calcitonin receptor (CTa) and RAMP-3) (Homo sapiens, UniProt O60896+P30988).
T1 construct: expressed in transfected cells; host or cells: BHK570 cells, stably transfected with a CRE-luciferase reporter
The experiment in a line: Luciferase assay (III), BHK Amylin 3(a)//CRE-luc cells. Type of assay: cell-based. To be noted: BHK cells with Amylin 3(a) receptor and CRE luciferase reporter, 4 hours incubation; read-out: Potency Luciferase. In a few lines:
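BHK570 cells stably expressing CTa, RAMP-3 and a CRE-luciferase reporter, seeded at about 20,000 cells/well and grown overnight. Cells were exposed to standard or sample for 4 h at 37° C in phenol red-free DMEM with 10% FBS and 10 mM Hepes, pH 7,4. Luminescence was read after 30 min LucLite at room temperature.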
On the technique in general: In a reporter assay the amount or activity of a reporter protein is the signal.

The test system of assay [2] is food intake. The experiment in a line: Pharmacological Assay (I) - efficacy testing on appetite, ad libitum fed rat model. Type of assay: in vivo, Sprague Dawley (SD) rats. To be noted: 30 nmol/kg vs vehicle, ad libitum fed rats, n=5-7, 0-48 hours. The text has this:
Assays Pharmacological Assay (I)—Experimental Protocol for Efficacy Testing on Appetite with an Amylin Derivative, Using an Ad Libitum Fed Rat Model. Sprague Dawley (SD) rats from Taconic Europe, Denmark are used for the experiments. The rats have a body weight 200-250 g at the start of experiment. The rats arrive at least 10-14 days before start of experiment to allow acclimatization to experimental settings. During this period the animals are handled at least 2 times. After arrival rats are housed individually for one week in a reversed light/dark phase (meaning that lights are off during daytime and on during nighttime) for two weeks. Since rats are normally active and eat their major part of their daily food intake during the dark period, rats are dosed in the morning right before lights are turned off. This set-up results in the lowest data variation and highest test sensitivity. The experiment is conducted in the rats' home cages and rats have free access to food and water throughout the acclimatization period and the experiment period. Each dose of derivative is tested in a group of 5-8 rats. A vehicle group of 6-8 rats is included in each set of testing. Rats are dosed once according to body weight with a 0.01-3 mg/kg solution administered intraperitoneally (ip), orally (po) or subcutaneously (sc). The time of dosing is recorded for each group. After dosing, the rats are returned to their home cages, where they then have access to food and water. The food consumption is recorded individually continuously by on-line registration or manually every hour for 7 hours, and then after 24 h and sometimes 48 h. At the end of the experimental session, the animals are euthanized. The individual data are recorded in Microsoft excel sheets. Outliers are excluded after applying the Grubbs statistical evaluation test for outliers, and the result is presented graphically using the GraphPad Prism program.

T1 sequence (O60896 24-148): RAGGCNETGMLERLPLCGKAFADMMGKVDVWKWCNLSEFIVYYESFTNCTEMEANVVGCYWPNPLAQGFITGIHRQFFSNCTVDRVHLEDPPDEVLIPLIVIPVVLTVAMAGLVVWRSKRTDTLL
T1 sequence (P30988 25-474): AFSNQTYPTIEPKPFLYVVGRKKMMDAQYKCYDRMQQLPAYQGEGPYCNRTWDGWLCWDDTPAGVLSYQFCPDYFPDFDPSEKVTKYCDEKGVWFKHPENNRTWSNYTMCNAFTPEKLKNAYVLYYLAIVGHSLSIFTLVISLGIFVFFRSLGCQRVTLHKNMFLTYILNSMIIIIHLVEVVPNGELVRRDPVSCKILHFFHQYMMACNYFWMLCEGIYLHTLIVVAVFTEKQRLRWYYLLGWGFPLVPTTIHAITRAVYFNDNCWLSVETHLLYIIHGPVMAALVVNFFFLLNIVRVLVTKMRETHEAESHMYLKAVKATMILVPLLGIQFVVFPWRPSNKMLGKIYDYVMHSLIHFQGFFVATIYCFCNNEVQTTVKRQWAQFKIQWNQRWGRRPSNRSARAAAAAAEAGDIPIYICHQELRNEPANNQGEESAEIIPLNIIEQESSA

Turning to `CC[C@H](C)[C@H](NC(=O)[C@@H]1CCCN1C(=O)CNC(=O)[C@H](Cc1ccccc1)NC(=O)[C@H](CC(N)=O)NC(=O)[C@H](CC(N)=O)NC(=O)[C@H](CO)NC(=O)[C@H](CO)NC(=O)[C@H](Cc1c[nH]cn1)NC(=O)[C@H](Cc1c[nH]cn1)NC(=O)[C@H](CC(C)C)NC(=O)[C@H](Cc1ccccc1)NC(=O)[C@H](CC(N)=O)NC(=O)[C@H](C)NC(=O)[C@H](CC(C)C)NC(=O)[C@H](CCCNC(=N)N)NC(=O)[C@H](CCC(N)=O)NC(=O)[C@@H](NC(=O)[C@H](C)NC(=O)[C@@H]1CSSC[C@H](NC(=O)[C@H](Cc2c[nH]cn2)NC(=O)[C@H](Cc2c[nH]cn2)NC(=O)[C@H](Cc2c[nH]cn2)NC(=O)CC[C@H](NC(=O)CCCCCCCCCCCCCCCCCCC(=O)O)C(=O)O)C(=O)N[C@@H](CC(N)=O)C(=O)N[C@@H]([C@@H](C)O)C(=O)N[C@@H](C)C(=O)N[C@@H]([C@@H](C)O)C(=O)N1)[C@@H](C)O)C(=O)N[C@@H](CC(C)C)C(=O)N1CCC[C@H]1C(=O)N1CCC[C@H]1C(=O)N[C@H](C(=O)N[C@@H](CC(N)=O)C(=O)N[C@H](C(=O)NCC(=O)N[C@@H](CO)C(=O)N[C@@H](CC(N)=O)C(=O)N[C@H](C(=O)N[C@@H](Cc1ccc(O)cc1)C(N)=O)[C@@H](C)O)C(C)C)[C@@H](C)O` [Example 39, N-alpha-[(S)-4-Carboxy-4-(19-carboxynonadecanoylamino)butyryl]-His-His-[His1,His17]-pramlintide] ({C20 diacid-γGlu}-HHHCNTATCATQRLANFLHHSSNNFGPILPPTNVGSNTY-NH2; disulfide 4-9), in assay [1], the EC50 came to 0.06 nM. Moreover, the “food intake over a period of 48 hours” value in assay [2] is “effectively reducing food intake”.
